{"source": "patent US9321795B2", "about": "“Use of hydroxycinnamaldehyde glycoside derivatives for treating glomerulonephritis” (National Defense Medical Center, priority 2014, dated 2016)", "key": {"[1]": {"test_system": "LPS induced mouse GN model", "test": "Urine protein and serum BUN (renal function) in LPS induced mouse GN model", "format": "in vivo", "conditions": "LPS induced GN C57BL/6 mice", "method": "(§1) Experiments were performed on 8-week-old female C57BL/6 mice. The mice were separated into 3 groups at 8-weeks old. One of the groups were injected intravenously with normal saline to be used as normal controls, where the pathological control group and the GN disease treatment group by the cinnamaldehyde derivative of the invention were intraperitoneally injected with […] Salmonella LPS (Sigma, USA) (Am J Physiol Renal Physiol, 296: F1088-1099, 2009; Nephron, 84: 167-176, 2000; Nephron Exp Nephrol, 112: e81-91, 2009) twice a week, continuously for 7 weeks for disease induction. Starting two days before disease induction, the GN disease treatment group was intraperitoneally injected with the cinnamaldehyde derivative of the invention at a daily dose of 30 mg/ml for continuous 7 weeks, while the pathological control group was given placebo daily through intraperitoneal injection. Urine samples were collected in metabolic cages every week. Mice were sacrificed on 7th week after the disease induction. Blood, kidneys, spleen and liver were collected and stored properly for further analysis.\nSerum blood urea nitrogen (BUN) and proteinuria were used to assess mice kidney function. Serum blood urea nitrogen (BUN) measurement of serum collected through the eye socket was done through a tester (Fuji DRI-CHEM 3000) with a test specimen (Fuju DRI-CHEM SLIDE). […]"}, "[2]": {"test_system": "glomeruli of GN mice", "test": "Renal histopathology (H&E) in LPS induced mouse GN model", "format": "in vivo", "conditions": "i.p. daily 30 mg/ml, 7 weeks, FIG. 2", "method": "as §1\nTo evaluate the renal histological changes, 10% formalin was used to fix the tissues, and sections were prepared and stained with hematoxylin and eosin (H&E) and observed under microscope. Changes in the tissues were analyzed by semi-quantitation. Items evaluated include: (1) cell density changes in glomerulus; (2) glomerulus fibrosis; (3) cell necrosis in glomerulus; (4) formation of crescent of glomerulonephritis. According to the ratio of glomeruli having pathological changes, 0 to 4 points were given as scores. 25 glomeruli were measured for each group and the sum of the points represents the renal histological changes. Secondly, mesenchymal and renal tubular atrophy, erythrocyte and protein granule sedimentation in renal tubules and mesenchymal inflammation were also evaluated."}, "[3]": {"test_system": "macrophage (F4/80)", "test": "Immunohistochemistry of kidney, macrophage marker F4/80", "format": "in vivo, mouse", "conditions": "LPS induced GN mice; i.p. daily 30 mg/ml, 7 weeks; IHC; vs GN disease group; FIG. 3(A),(D),(E)", "method": "as §1\n(§2) In addition, to carry out immunohistochemistry (IHC) analysis, tissue fixation, paraffin-embedding, sectioning, rehydration and antigen retrieval were done with routine procedures, and 3% H2O2 was used to remove endogenous peroxidase. […]"}, "[4]": {"test_system": "T cell (CD3)", "test": "Immunohistochemistry of kidney, T cell (CD3) infiltration", "format": "in vivo, mouse", "conditions": "LPS induced GN mice; i.p. daily 30 mg/ml, 7 weeks; IHC; FIG. 3(A),(B),(C)", "method": "as §1, §2"}, "[5]": {"test_system": "NF-κB", "test": "Immunohistochemistry of kidney, NF-κB expression", "format": "in vivo, mouse", "conditions": "LPS induced GN mice; i.p. daily 30 mg/ml, 7 weeks; IHC; FIG. 4(A),(B)", "method": "as §1, §2"}, "[6]": {"test_system": "spleen cells", "test": "Flow cytometry of T cell and B cell activation in spleen cells", "format": "in vivo, mouse", "conditions": "LPS induced GN mice, i.p. daily 30 mg/ml, 7 weeks", "method": "as §1\nMice spleens were taken out, grinded, rinsed and centrifuged to obtain spleen cells. To carry out mice inflammation reaction analysis, 1×10^6 cells were taken and reacted with anti-mouse CD3-FITC antibody, anti-mouse […] antibody anti-mouse CD8-PE, anti-mouse CD19-FITC antibody and anti-mouse CD69-PE antibody (all purchased from BD Pharmingen, CA) respectively in the dark under room temperature for 30 minutes, and analyzed with flow cytometry (Beckton Dickinson, Calif.)."}, "[7]": {"test_system": "NF-κB p65", "test": "NF-κB p65 activity in kidney tissues (ELISA)", "format": "in vivo, mouse", "conditions": "LPS induced GN mice, i.p. daily 30 mg/ml, 7 weeks, FIG. 4(C)", "method": "as §1, with “Blood, kidneys, spleen and liver were collected and stored properly for further analysis.” left out\nRenal cortical tissues were taken and extracted for nuclear protein with nucleus extraction kit (Active Motif, Japan), and nuclear proteins were taken to detect NF-κB p65 activity after protein quantitation. […] Lastly, ELISA reader (Bio-Tek, USA) was used to detect OD 450 nm absorption and the values were converted to sample concentration according to the standard curve."}, "[8]": {"test_system": "IL-6", "test": "IL-6 protein in kidney tissue (ELISA)", "format": "in vivo, mouse", "conditions": "LPS induced GN mice, i.p. daily 30 mg/ml, 7 weeks, FIG. 4(D)", "method": "as §1\n(§3) ELISA reader (Bio-Tek, USA) was used to detect OD 450 nm absorption and the values were converted to sample concentration according to the standard curve."}, "[9]": {"test_system": "IL-1β", "test": "Mature IL-1β in renal cortical protein (ELISA)", "format": "in vivo, mouse", "conditions": "LPS induced GN mice, i.p. daily 30 mg/ml, 7 weeks, FIG. 5(H)", "method": "as §1, §3"}, "[10]": {"test_system": "NLRP3", "test": "Real-time PCR of kidney tissue, NLRP3", "format": "in vivo, mouse", "conditions": "LPS induced GN mice, i.p. daily 30 mg/ml, 7 weeks, FIG. 5(A)-(D)", "method": "as §1\n(§4) RNA was extracted from kidney tissues, reverse transcribed to cDNA and Real-Time PCR (Applied Biosystems) was carried out. Items determined include: IL-6, NLRP3, caspase-1, IL-1β and IL-18, where GAPDH gene expression levels were used to carry out the internal correction."}, "[11]": {"test_system": "caspase-1", "test": "Real-time PCR of kidney tissue, caspase-1", "format": "in vivo, mouse", "conditions": "LPS induced GN mice, i.p. daily 30 mg/ml, 7 weeks, FIG. 5(A)-(D)", "method": "as §1, §4"}, "[12]": {"test_system": "IL-1β", "test": "Real-time PCR of kidney tissue, IL-1β", "format": "in vivo, mouse", "conditions": "LPS induced GN mice, i.p. daily 30 mg/ml, 7 weeks, FIG. 5(A)-(D)", "method": "as §1, §4"}, "[13]": {"test_system": "IL-18", "test": "Real-time PCR of kidney tissue, IL-18", "format": "in vivo, mouse", "conditions": "LPS induced GN mice, i.p. daily 30 mg/ml, 7 weeks, FIG. 5(A)-(D)", "method": "as §1, §4"}, "[14]": {"test_system": "caspase-1", "test": "Western blot of renal cortical proteins, caspase-1", "format": "in vivo, mouse", "conditions": "LPS induced GN mice, i.p. daily 30 mg/ml, 7 weeks", "method": "as §1\nRenal cortical tissues were cut to pieces and placed in buffer, and grinding with sonication was used to lyse the cells. After centrifugation, the supernatant was preserved, and protein concentration was measured with protein concentration analyzing kit (BCA protein Assay Kit, PIERCE). […]"}, "[15]": {"test_system": "TLR4", "test": "Reverse-transcription PCR, TLR4 mRNA", "format": "in vivo, mouse", "conditions": "LPS induced GN mice, i.p. daily 30 mg/ml, 7 weeks, semi-quantitated, FIG. 6", "method": "as §1\n(§5) Reverse-transcription PCR was used to evaluate and semi-quantitate TLR4 and its following adaptin Myd88 mRNA expression. […]"}, "[16]": {"test_system": "MyD88", "test": "Reverse-transcription PCR, MyD88 mRNA", "format": "in vivo, mouse", "conditions": "LPS induced GN mice, i.p. daily 30 mg/ml, 7 weeks, semi-quantitated, FIG. 6", "method": "as §1, §5"}, "[17]": {"test": "Drug safety by weekly weight change of mice", "format": "in vivo, mouse", "conditions": "LPS induced GN mice, i.p. daily 30 mg/ml, 7 weeks; for weight change of mice: recorded each week, compared to normal control group, FIG. 7", "method": "as §1\nDuring the experiment processes, the drug safety of the cinnamaldehyde derivative was assessed through recording the weight change of mice each week."}}}
{"smiles": "O=CC=Cc1ccc(OC2OC(CO)C(O)C(O)C2O)cc1", "note": "(centres unmarked) [cinnamaldehyde derivative, 4-hydroxyphenylacrylaldehyde glycoside]", "values": [{"measurement": "serum blood urea nitrogen (BUN)", "setting": "[1]; i.p. daily 30 mg/ml for 7 weeks, vs pathological control group, FIG. 1(B)", "result": "significantly lower"}, {"measurement": "urine protein content (proteinuria)", "setting": "[1]; i.p. daily dose of 30 mg/ml for 7 weeks, vs disease group, *p<0.05, FIG. 1(A)", "result": "reduce proteinuria"}, {"measurement": "glomerular fibrosis", "setting": "[2]", "result": "no fibrosis condition occurrence was observed"}, {"measurement": "glomerular proliferation", "setting": "[2]", "result": "significantly ameliorated"}, {"measurement": "lymphocyte infiltration", "setting": "[2]", "result": "reduced"}, {"measurement": "macrophage (F4/80) staining in kidney", "setting": "[3]", "result": "significantly less"}, {"measurement": "T lymphocyte (CD3) infiltration in glomeruli", "setting": "[4]", "result": "significantly lowered"}, {"measurement": "NF-κB expression in kidney tissue", "setting": "[5]", "result": "reduce its expression level"}, {"measurement": "Helper T cells (CD4+) activation ratio in spleen cells", "setting": "[6]; ***p<0.005, FIG. 3(G)", "result": "significantly ameliorated"}, {"measurement": "T cell (CD3+) activation in spleen cells", "setting": "[6]; FIG. 3(F)", "result": "showed the tendency of reduction"}, {"measurement": "B cell (CD19+) activation in spleen cells", "setting": "[6]; FIG. 3(H)", "result": "no significant difference"}, {"measurement": "NF-κB p65 content (activation) in renal cortical proteins", "setting": "[7]", "result": "lower its activation level"}, {"measurement": "IL-6 protein expression level in kidney tissue", "setting": "[8]", "result": "reduce IL-6 expression"}, {"measurement": "amount of mature IL-1β", "setting": "[9]", "result": "significantly decreased"}, {"measurement": "amount of mature IL-1β", "setting": "[9]; listed as hydroxycinammaldehde glycoside derivate", "result": "significantly increased in GN disease group compared to hydroxycinammaldehde glycoside derivate treated GN group"}, {"measurement": "NLRP3 gene expression level in kidney tissue", "setting": "[10]", "result": "significantly reduced"}, {"measurement": "caspase-1 gene expression level in kidney tissue", "setting": "[11]", "result": "significantly reduced"}, {"measurement": "IL-1β gene expression level in kidney tissue", "setting": "[12]", "result": "significantly reduced"}, {"measurement": "IL-18 gene expression level in kidney tissue", "setting": "[13]", "result": "significantly reduced"}, {"measurement": "matured caspase-1 expression level", "setting": "[14]; FIG. 5(E)", "result": "higher in the disease group than in the cinnamaldehyde derivative treatment group"}, {"measurement": "pro-caspase-1 expression level", "setting": "[14]; FIG. 5(E)-(G)", "result": "reduced"}, {"measurement": "TLR4 mRNA expression level", "setting": "[15]", "result": "reduced"}, {"measurement": "MyD88 mRNA expression level", "setting": "[16]", "result": "reduced"}, {"measurement": "side-effects in animals", "setting": "[17]; judged from weight change", "result": "did not cause obvious side-effects"}, {"measurement": "weight change of mice", "setting": "[17]; listed as hydroxycinammaldehde glycoside derivative", "result": "does not result in weight loss"}, {"measurement": "weight change of mice", "setting": "[17]; listed as hydroxycinnamaldehyde derivative", "result": "stable increase in their bodyweight"}]}
